The values that follow come from patent US9045524B2, “Selective caspase inhibitors and uses thereof” (NOVAGENESIS FOUNDATION, priority 2009, dated 2015).

For one test, the system named is Caspase-1 to -10. As to the kind of experiment: Fluorometric caspase enzymatic assays, positive inhibitor control (all experiments). Format: biochemical. Particulars: Final concentration=20 uM. As for the experimental part: In brief, each compound was serially diluted for a final test concentration range of 0.1 nM to 3.3 μM (10-point titration). Each active recombinant Caspase (Active Recombinant Caspase Set IV™ (BioVision, Cat# K233-10-25)) was added to the respective wells of the 96-well High Efficiency™ plates (Molecular Devices, Cat#75-000-0005), followed by the addition of the diluted test compounds. DMSO (Final=1%) or Z-VAD-FMK (Caspase-Family Inhibitor, Z-VAD-FMK (BioVision, Cat#1010-100), Final concentration=20 uM) was added in the designated wells as a background control or positive inhibitor control respectively. Each dilution of the test compounds was tested in duplicates, whereas the DMSO or Z-VAD-FMK controls were tested in triplicates. The synthetic peptide substrate specific for each Caspase (BioVision) was then added to the respective wells, which when cleaved by the active caspase releases free AFC that can be quantified by fluorometry. After a 30-minute incubation at 37° C., the plates were read using the Flexstation 3™ with a 400 nm excitation filter and a 505 nm emission filter (cutoff at 495 nm). The inhibition efficiency and the IC50 values of the test compounds were then determined by comparing the fluorescence intensity (FI) of the test compounds with that of the DMSO control. […]

The test system of a further test is EAE in C57BL/6 mice. Nature of the test: Chronic EAE mouse model (MOG35-55 immunization), daily clinical score and body weight. Format: in vivo. Details: key to Delay in onset of the disease / Reduction in severity of the disease / Reduction in body weight loss: +++: high level improvement; ++: moderate improvement; +: small improvement; −: no improvement. The gist of the method: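 Female C57BL/6 mice, 7–8 weeks old, were immunized s.c. with 100 μg MOG35-55 in CFA containing M. tuberculosis H37Ra, plus 200 ng pertussis toxin i.p. on days 0 and 2. […], compound in 2.5% DMSO/PBS was given i.p.; vehicle for placebo. Clinical score (0–5) and body weight were recorded daily.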

In another test the target is Caspase-2 (Homo sapiens (Human), UniProt P42575). Nature of the test: Fluorometric enzymatic assay, active recombinant Caspase-2. The format is biochemical. The settings on record: 10-point titration 0.1 nM to 3.3 μM, 30-minute incubation at 37° C.; read-out: IC50 values (μM) Caspase-2. As for the experimental part: (§1) . In brief, each compound was serially diluted for a final test concentration range of 0.1 nM to 3.3 μM (10-point titration). Each active recombinant Caspase (Active Recombinant Caspase Set IV™ (BioVision, Cat# K233-10-25)) was added to the respective wells of the 96-well High Efficiency™ plates (Molecular Devices, Cat#75-000-0005), followed by the addition of the diluted test compounds. DMSO (Final=1%) or Z-VAD-FMK (Caspase-Family Inhibitor, Z-VAD-FMK (BioVision, Cat#1010-100), Final concentration=20 uM) was added in the designated wells as a background control or positive inhibitor control respectively. Each dilution of the test compounds was tested in duplicates, whereas the DMSO or Z-VAD-FMK controls were tested in triplicates. The synthetic peptide substrate specific for each Caspase (BioVision) was then added to the respective wells, which when cleaved by the active caspase releases free AFC that can be quantified by fluorometry. After a 30-minute incubation at 37° C., the plates were read using the Flexstation 3™ with a 400 nm excitation filter and a 505 nm emission filter (cutoff at 495 nm). The inhibition efficiency and the IC50 values of the test compounds were then determined by comparing the fluorescence intensity (FI) of the test compounds with that of the DMSO control.
Sequence of Caspase-2 (P42575 170-325): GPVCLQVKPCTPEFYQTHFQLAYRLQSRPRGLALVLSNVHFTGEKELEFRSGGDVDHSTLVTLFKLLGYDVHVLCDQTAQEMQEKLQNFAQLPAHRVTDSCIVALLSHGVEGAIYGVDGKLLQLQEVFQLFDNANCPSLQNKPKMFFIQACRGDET
Sequence of Caspase-2 (P42575 348-452): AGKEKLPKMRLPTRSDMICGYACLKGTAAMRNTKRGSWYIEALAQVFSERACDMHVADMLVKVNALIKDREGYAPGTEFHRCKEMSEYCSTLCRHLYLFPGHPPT
(§2) The SoftMax Pro Software™ (v5.2 rev C, Molecular Devices) was used for data analysis. The % Inhibition is calculated by: % Inhibition=[FI(DMSO)−FI(test sample)/FI(DMSO)]×100. The % Inhibition vs. Log(concentration) was plotted, and the curve was fitted using the 5-parameter fit of the software.

A further test addresses Caspase-5 (Homo sapiens (Human), UniProt P51878). Nature of the test: Fluorometric enzymatic assay, active recombinant Caspase-5. Particulars: 10-point titration 0.1 nM to 3.3 μM, 30-minute incubation at 37° C.; read-out: IC50 values (μM) Caspase-5. The format is biochemical. The method, then:
as §1, §2

Another test deals with Caspase-6 (Homo sapiens (Human), UniProt P55212). As to the kind of experiment: Fluorometric enzymatic assay, active recombinant Caspase-6. The format is biochemical. Particulars: 10-point titration 0.1 nM to 3.3 μM, 30-minute incubation at 37° C.; read-out: IC50 values (μM) Caspase-6. The method, then:
as §1, §2

The next test addresses Caspase-8 (Homo sapiens (Human), UniProt Q14790). As to the kind of experiment: Fluorometric enzymatic assay, active recombinant Caspase-8. Format: biochemical. Particulars: 10-point titration 0.1 nM to 3.3 μM, 30-minute incubation at 37° C.; read-out: IC50 values (μM) Caspase-8. The method, then:
as §1, §2

Another test addresses Caspase-1 (Homo sapiens (Human), UniProt P29466). As to the kind of experiment: Fluorometric enzymatic assay, active recombinant Caspase-1. Particulars: read-out: IC50 values (μM) Caspase-1; 10-point titration 0.1 nM to 3.3 μM, 30-minute incubation at 37° C.
The next test concerns the target Caspase-3 (Homo sapiens (Human), UniProt P42574). Nature of the test: Fluorometric enzymatic assay, active recombinant Caspase-3.
The next test addresses Caspase-4 (Homo sapiens (Human), UniProt P49662). As to the kind of experiment: Fluorometric enzymatic assay, active recombinant Caspase-4. The settings on record: read-out: IC50 values (μM) Caspase-4; 10-point titration 0.1 nM to 3.3 μM, 30-minute incubation at 37° C.
Another test addresses Caspase-7 (Homo sapiens (Human), UniProt P55210). As to the kind of experiment: Fluorometric enzymatic assay, active recombinant Caspase-7.
A further test concerns the target Caspase-9 (Homo sapiens (Human), UniProt P55211). As to the kind of experiment: Fluorometric enzymatic assay, active recombinant Caspase-9.
A further test addresses Caspase-10 (Homo sapiens (Human), UniProt Q92851). Nature of the test: Fluorometric enzymatic assay, active recombinant Caspase-10.
[1] abbreviates: FIG. 3, i.p. from day 14 to 19 post immunization, versus placebo.
The mark [2] stands for this setting: average overall effects on the EAE model, i.p.

Peptide text beside a SMILES is read from it. * marks the point of attachment. Cbz = O=C(OCc1ccccc1)*; CH2F = FC*

Sequence of Caspase-10 (Q92851 220-415): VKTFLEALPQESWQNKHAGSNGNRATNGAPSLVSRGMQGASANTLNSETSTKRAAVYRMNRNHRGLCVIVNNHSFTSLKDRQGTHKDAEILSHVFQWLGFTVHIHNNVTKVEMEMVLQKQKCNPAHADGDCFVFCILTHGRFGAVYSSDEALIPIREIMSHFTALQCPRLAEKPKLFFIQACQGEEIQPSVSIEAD
Sequence of Caspase-10 (Q92851 416-521): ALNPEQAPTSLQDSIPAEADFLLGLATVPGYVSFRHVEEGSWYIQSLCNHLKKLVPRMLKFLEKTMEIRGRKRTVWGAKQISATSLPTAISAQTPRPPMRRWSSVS
Sequence of Caspase-3 (P42574 29-175): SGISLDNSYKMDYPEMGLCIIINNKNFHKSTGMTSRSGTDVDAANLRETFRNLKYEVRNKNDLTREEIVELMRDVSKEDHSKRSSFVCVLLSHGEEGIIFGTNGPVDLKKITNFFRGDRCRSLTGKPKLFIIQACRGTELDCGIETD
Sequence of Caspase-3 (P42574 176-277): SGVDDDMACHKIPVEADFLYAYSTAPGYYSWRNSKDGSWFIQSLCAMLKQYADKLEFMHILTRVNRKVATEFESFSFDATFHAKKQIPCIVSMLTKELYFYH
Sequence of Caspase-7 (P55210 whole entry, looked up): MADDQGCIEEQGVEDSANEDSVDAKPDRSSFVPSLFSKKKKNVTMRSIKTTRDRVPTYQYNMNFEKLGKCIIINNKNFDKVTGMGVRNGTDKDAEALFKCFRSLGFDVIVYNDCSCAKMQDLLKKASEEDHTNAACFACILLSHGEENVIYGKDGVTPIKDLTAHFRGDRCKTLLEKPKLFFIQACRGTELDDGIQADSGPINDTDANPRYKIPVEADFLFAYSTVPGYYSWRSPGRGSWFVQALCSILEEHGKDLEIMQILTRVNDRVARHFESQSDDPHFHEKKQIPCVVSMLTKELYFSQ
Sequence of Caspase-7 (P55210 whole entry, looked up): as above
Sequence of Caspase-9 (P55211 whole entry, looked up, change not shown): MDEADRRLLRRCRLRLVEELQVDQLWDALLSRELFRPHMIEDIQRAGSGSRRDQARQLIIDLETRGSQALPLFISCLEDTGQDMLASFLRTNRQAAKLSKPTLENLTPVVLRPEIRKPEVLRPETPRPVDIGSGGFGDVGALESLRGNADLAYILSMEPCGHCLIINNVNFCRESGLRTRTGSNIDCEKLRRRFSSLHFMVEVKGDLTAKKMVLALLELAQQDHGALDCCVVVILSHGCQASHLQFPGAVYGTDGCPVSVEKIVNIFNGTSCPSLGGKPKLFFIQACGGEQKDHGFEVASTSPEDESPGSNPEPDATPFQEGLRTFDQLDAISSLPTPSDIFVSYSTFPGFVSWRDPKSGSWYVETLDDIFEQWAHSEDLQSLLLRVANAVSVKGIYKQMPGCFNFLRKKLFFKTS
Sequence of Caspase-9 (P55211 whole entry, looked up, change not shown): as above
Sequence of Caspase-1 (P29466 whole entry, looked up): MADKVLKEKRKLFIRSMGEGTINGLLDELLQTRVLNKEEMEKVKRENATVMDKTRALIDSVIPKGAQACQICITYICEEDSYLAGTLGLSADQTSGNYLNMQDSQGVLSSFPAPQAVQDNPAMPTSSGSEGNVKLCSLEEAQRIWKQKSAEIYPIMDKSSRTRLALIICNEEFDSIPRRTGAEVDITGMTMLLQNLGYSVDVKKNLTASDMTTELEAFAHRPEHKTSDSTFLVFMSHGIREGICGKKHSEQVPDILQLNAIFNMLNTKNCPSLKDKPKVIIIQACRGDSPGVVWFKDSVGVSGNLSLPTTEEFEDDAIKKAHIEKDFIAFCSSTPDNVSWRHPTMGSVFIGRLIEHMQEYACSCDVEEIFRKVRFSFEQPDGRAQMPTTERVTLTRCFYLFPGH
Sequence of Caspase-1 (P29466 whole entry, looked up): as above
Sequence of Caspase-8 (Q14790 217-374): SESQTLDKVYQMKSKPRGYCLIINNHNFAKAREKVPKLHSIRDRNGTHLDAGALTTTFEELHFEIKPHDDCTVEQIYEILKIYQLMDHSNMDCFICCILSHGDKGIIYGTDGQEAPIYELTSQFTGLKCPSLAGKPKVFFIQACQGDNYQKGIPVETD
Sequence of Caspase-8 (Q14790 385-479): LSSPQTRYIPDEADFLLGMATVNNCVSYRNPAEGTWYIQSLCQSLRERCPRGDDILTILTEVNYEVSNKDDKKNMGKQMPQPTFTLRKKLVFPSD
Sequence of Caspase-5 (P51878 whole entry, looked up): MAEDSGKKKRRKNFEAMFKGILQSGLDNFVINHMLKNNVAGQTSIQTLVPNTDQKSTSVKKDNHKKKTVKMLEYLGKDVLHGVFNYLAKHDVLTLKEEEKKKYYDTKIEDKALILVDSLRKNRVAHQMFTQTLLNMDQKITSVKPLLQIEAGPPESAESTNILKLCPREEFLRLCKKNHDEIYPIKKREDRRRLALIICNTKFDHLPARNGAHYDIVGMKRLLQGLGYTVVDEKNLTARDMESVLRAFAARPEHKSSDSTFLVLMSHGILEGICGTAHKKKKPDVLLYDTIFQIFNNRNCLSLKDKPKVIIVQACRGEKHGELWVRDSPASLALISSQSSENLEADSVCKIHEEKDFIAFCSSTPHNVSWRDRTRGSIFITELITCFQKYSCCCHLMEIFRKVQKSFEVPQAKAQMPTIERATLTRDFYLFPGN
Sequence of Caspase-5 (P51878 whole entry, looked up): as above
Sequence of Caspase-4 (P49662 81-270): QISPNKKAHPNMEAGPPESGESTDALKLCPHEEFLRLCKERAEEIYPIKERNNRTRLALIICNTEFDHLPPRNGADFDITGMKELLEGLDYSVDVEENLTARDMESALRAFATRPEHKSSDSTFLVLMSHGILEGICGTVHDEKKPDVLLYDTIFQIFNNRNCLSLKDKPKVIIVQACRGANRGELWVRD
Sequence of Caspase-4 (P49662 290-377): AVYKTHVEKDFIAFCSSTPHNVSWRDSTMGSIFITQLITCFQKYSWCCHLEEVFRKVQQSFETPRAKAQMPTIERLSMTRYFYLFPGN
Sequence of Caspase-6 (P55212 24-179): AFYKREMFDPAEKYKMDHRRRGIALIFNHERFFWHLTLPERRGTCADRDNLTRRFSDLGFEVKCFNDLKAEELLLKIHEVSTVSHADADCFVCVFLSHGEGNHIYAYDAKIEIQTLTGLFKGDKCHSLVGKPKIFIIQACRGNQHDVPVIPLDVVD
Sequence of Caspase-6 (P55212 194-293): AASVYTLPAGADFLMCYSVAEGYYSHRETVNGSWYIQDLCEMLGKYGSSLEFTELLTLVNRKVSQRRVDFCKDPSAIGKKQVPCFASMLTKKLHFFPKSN
Description for Caspase-10: (§3) Each dilution of the test compounds was tested in duplicates, whereas the DMSO or Z-VAD-FMK controls were tested in triplicates. […] The inhibition efficiency and the IC50 values of the test compounds were then determined by comparing the fluorescence intensity (FI) of the test compounds with that of the DMSO control.
Description for Caspase-3: as §3
Description for Caspase-4: as §3
Description for Caspase-7: as §3
Description for Caspase-9: as §3

As for `COC(=O)C[C@H](NC(=O)[C@H](C)NC(=O)[C@@H](NC(=O)OCc1ccccc1)C(C)C)C(=O)CF` [Z-VAD-FMK, benzyloxycarbonyl-Val-Ala-Asp-fluoromethylketone] (Cbz-Val-Ala-Asp(OMe)-CH2F), the “inhibition by positive inhibitor control” value in the test with Caspase-1 to -10 is more than 50%.
On to `CC(C)[C@H](NC(=O)[C@@H](NC(=O)[C@H](CC(=O)O)NC(=O)OCc1ccccc1)c1ccccc1)C(=O)N[C@H](/C=C(\Cl)S(C)(=O)=O)CC(=O)O` [Compound 123, Z-Asp-phenylglycine-Val-Asp-achlorovinyl methylsulfone], for which the “Loss of body weight” value in the test with EAE in C57BL/6 mice (setting [1]) was “less than in the placebo group”. In the test on EAE in C57BL/6 mice (setting [1]), the “effects on the clinical course of EAE” value is reported as “ameliorating effects”. Also, the “Delay in onset of the disease” value in the test with EAE in C57BL/6 mice (setting [2]) is given as “+”. For the same molecule, the “Reduction in body weight loss” value with EAE in C57BL/6 mice (setting [2]) is “+++”. In addition, the “Reduction in severity of the disease” value in the test on EAE in C57BL/6 mice (setting [2]) is given as “++”. In addition, the IC50 on Caspase-2 is more than 3.33 µM; at Caspase-5 it was more than 3.33 µM; at Caspase-6, more than 3.33 µM; on Caspase-8, more than 3.33 µM; on Caspase-1, more than 3.33 µM; at Caspase-3 (read-out: IC50 values (μM) Caspase-3, 10-point titration 0.1 nM to 3.3 μM, 30-minute incubation at 37° C.), 0.06 µM. The IC50 on Caspase-4 was more than 3.33 µM; on Caspase-7 (read-out: IC50 values (μM) Caspase-7, 10-point titration 0.1 nM to 3.3 μM, 30-minute incubation at 37° C.) it was 0.5 µM; at Caspase-9 (read-out: IC50 values (μM) Caspase-9, 10-point titration 0.1 nM to 3.3 μM, 30-minute incubation at 37° C.) it was 2.8 µM; on Caspase-10 (read-out: IC50 values (μM) Caspase-10, 10-point titration 0.1 nM to 3.3 μM, 30-minute incubation at 37° C.), 2 µM. For the same molecule, the “inhibitory activity towards Caspase-3” value on Caspase-3 (FIG. 5) is “high inhibitory activity”. For the same molecule, the “inhibitory activity towards Caspase-7” value at Caspase-7 (FIG. 5) was “high inhibitory activity”. Also, on Caspase-9 (FIG. 5), the “inhibitory activity towards Caspase-9” value is recorded as “inhibitory activity”. For the same molecule, on Caspase-10 (FIG. 5), the “inhibitory activity towards Caspase-10” value was “inhibitory activity”.
